Results as given in patent US5869494A, “Uses for barbituric acid analogs” (priority 1997, dated 1999).
Where two headings read alike, the source gives them in different places.

Tests used:
Type in all cases: cell-based
[1] = test system: PC-3 human prostate cancer cells; assay: Cytotoxicity for prostate cancer cell line PC-3 (MTT assay); settings: read-out: Percent cell kill; for cytotoxicity at 50 µg/mL: 50 μg/ml; for cytotoxicity at 100 µg/mL: 100 μg/ml; for cytotoxicity at 150 µg/mL: 150 μg/ml
Procedure: (§1) In the following examples, tumor cells were treated with varying concentrations of compounds C1, C2, C4 or C5 dissolved in absolute ethanol. To limit any non-specific toxicity, the final concentration of ethanol was not allowed to exceed 0.5%. Stock concentrations of 5 mg/ml or 20 mg/ml were used. Viability of cells was determined in some studies by the trypan blue dye exclusion method. In other studies, cell viability/proliferation activity was determined by MTT assay by using a kit obtained from Promega, (Promega Corp., Madison, Wis. 53711). For this assay, a 100 μl cell suspension containing 5-10^3 monolayer cells or 1×10^5 suspension cells was placed in the wells of a 96-well microtiter plate. After overnight incubation, cells were treated with different concentrations of the test compound. Control wells received vehicle only. After 24, 48, 72 or 96 h of incubation, 50 μl of MTT dye solution was added. After 4 h of incubation at 37° C., 100 μl of solubilization/stop solution was added. After another h of incubation, cells were mixed using a multi-channel pipet and the absorption of the dye color was recorded at 570 nm using a plate reading absorption spectrophotometer.
(§2) After the incubation period, viability of the cells was determined by MTT assay (Promega Corp., Madison, Wis. 53711).

[2] = test system: DU-145 human prostate cancer cells; assay: Cytotoxicity for prostate cancer cell line DU-145 (MTT assay); settings: read-out: Percent cell kill; for cytotoxicity at 50 µg/mL: 50 μg/ml; for cytotoxicity at 100 µg/mL: 100 μg/ml; for cytotoxicity at 150 µg/mL: 150 μg/ml
Procedure: as §1, §2

[3] = test system: MCF-7 human breast cancer cells; assay: Cytotoxicity for breast cancer cell line MCF-7 (MTT assay); settings: read-out: Percent cell kill; for cytotoxicity at 50 µg/mL: 50 μg/ml; for cytotoxicity at 100 µg/mL: 100 μg/ml; for cytotoxicity at 150 µg/mL: 150 μg/ml
Procedure: as §1, §2

[4] = test system: BT-20 human breast cancer cells; assay: Cytotoxicity for breast cancer cell line BT-20 (MTT assay); settings: read-out: Percent cell kill; for cytotoxicity at 50 µg/mL: 50 μg/ml; for cytotoxicity at 100 µg/mL: 100 μg/ml; for cytotoxicity at 150 µg/mL: 150 μg/ml
Procedure: as §1, §2

[5] = test system: Daudi human lymphoma cells; assay: Cytotoxicity for lymphoma cells (Daudi); settings: for cytotoxicity at 50 µg/mL / cytotoxicity at 100 µg/mL / cytotoxicity at 150 µg/mL: Homo sapiens, Daudi; for cytotoxicity at 50 µg/mL: 50 μg/ml; for cytotoxicity at 100 µg/mL: 100 μg/ml; for cytotoxicity at 150 µg/mL: 150 μg/ml, read-out: % Cytotoxicity
Procedure: as §1
The viability of the cells was
Compounds C4 and C5 were also tested for toxicity against human lymphoma Daudi cells.

[6] = test system: L1210 mouse leukemia cells; assay: Cytotoxicity for leukemia cells (L1210); settings: for cytotoxicity at 50 µg/mL / cytotoxicity at 110 µg/mL / cytotoxicity at 150 µg/mL: Mus musculus; for cytotoxicity at 50 µg/mL: 50 μg/ml; for cytotoxicity at 110 µg/mL: 110 μg/ml; for cytotoxicity at 150 µg/mL: 150 μg/ml
Procedure: as §1
The viability of the cells was […]

[7] = 48 h, all concentrations tested

## CCCCN1C(=O)CC(=O)N(CCCC)C1=S [Compound C1, 4,6(1H, 5H)-pyrimidinedione, 1,3-dibutyldihydro-2-thioxo]
[1]; 24 h, 24 hr
  cytotoxicity at 50 µg/mL: 61.7 ± 10%
  cytotoxicity at 100 µg/mL: 88.7 ± 5.5%
  cytotoxicity at 150 µg/mL: 90.5 ± 7.1%
[1]; 48 h, 48 hr
  cytotoxicity at 50 µg/mL: 91 ± 3.6%
  cytotoxicity at 100 µg/mL: 92.7 ± 1.2%
  cytotoxicity at 150 µg/mL: 94.9 ± 5.3%
[1]; 72 h, 72 hr
  cytotoxicity at 50 µg/mL: 100%
  cytotoxicity at 100 µg/mL: 100%
  cytotoxicity at 150 µg/mL: 100%
[1]; 96 h, 96 hr
  cytotoxicity at 50 µg/mL: 100%
  cytotoxicity at 100 µg/mL: 100%
  cytotoxicity at 150 µg/mL: > 96%
[2]; DU-145, 24 h, 24 hr
  cytotoxicity at 50 µg/mL: 0%
  cytotoxicity at 100 µg/mL: 27.5 ± 6.4%
  cytotoxicity at 150 µg/mL: 43 ± 2.9%
[2]; DU-145, 48 h, 48 hr
  cytotoxicity at 50 µg/mL: 0%
  cytotoxicity at 100 µg/mL: 52.2 ± 3.4%
  cytotoxicity at 150 µg/mL: 71 ± 7.3%
[2]; DU-145, 72 h, 72 hr
  cytotoxicity at 50 µg/mL: 23.5 ± 4.5%
  cytotoxicity at 100 µg/mL: 58.7 ± 2.1%
  cytotoxicity at 150 µg/mL: 78.7 ± 3.4%
[2]; DU-145, 96 h, 96 hr
  cytotoxicity at 50 µg/mL: 26.2 ± 5.5%
  cytotoxicity at 100 µg/mL: 64 ± 4.2%
  cytotoxicity at 150 µg/mL: 82.5 ± 3.7%
[3]; MCF7, 24 h, 24 hr
  cytotoxicity at 50 µg/mL: 39.5 ± 10.5%
  cytotoxicity at 100 µg/mL: 57.3 ± 1.5%
  cytotoxicity at 150 µg/mL: 87.8 ± 8.8%
[3]; MCF7, 48 h, 48 hr
  cytotoxicity at 50 µg/mL: 67.5 ± 5.3%
  cytotoxicity at 100 µg/mL: 92.8 ± 4.9%
  cytotoxicity at 150 µg/mL: 92.3 ± 5.3%
[3]; MCF7, 72 h, 72 hr
  cytotoxicity at 50 µg/mL: 85.8 ± 3.8%
  cytotoxicity at 100 µg/mL: 88 ± 5.4%
  cytotoxicity at 150 µg/mL: 84.5 ± 5.1%
[3]; MCF7, 96 h, 96 hr
  cytotoxicity at 50 µg/mL: 97.8 ± 1.7%
  cytotoxicity at 100 µg/mL: 97.8 ± 1.7%
  cytotoxicity at 150 µg/mL: 96.5 ± 2.5%
[4]; BT-20, 24 h, 24 hr
  cytotoxicity at 50 µg/mL: 43.3 ± 4.1%
  cytotoxicity at 100 µg/mL: 62 ± 7.9%
  cytotoxicity at 150 µg/mL: 94 ± 4.2%
[4]; BT-20, 48 h, 48 hr
  cytotoxicity at 50 µg/mL: 65.5 ± 2.4%
  cytotoxicity at 100 µg/mL: 91.3 ± 2.5%
  cytotoxicity at 150 µg/mL: 96.5 ± 2.4%
[4]; BT-20, 72 h, 72 hr
  cytotoxicity at 50 µg/mL: 73.3 ± 2.9%
  cytotoxicity at 100 µg/mL: 86.8 ± 3.6%
  cytotoxicity at 150 µg/mL: 86 ± 3.6%
[4]; BT-20, 96 h, 96 hr
  cytotoxicity at 50 µg/mL: 100%
  cytotoxicity at 100 µg/mL: 100%
  cytotoxicity at 150 µg/mL: 100%
[5]; [7]
  killing of cells: over 99%
[5]; 24 h
  cytotoxicity at 50 µg/mL: 91.3 ± 4.6%
  cytotoxicity at 100 µg/mL: 93.3 ± 4.9%
[5]; 24 h, 24 hr
  cytotoxicity at 150 µg/mL: 94 ± 4.9%
[5]; 48 h
  cytotoxicity at 50 µg/mL: 99.9%
  cytotoxicity at 100 µg/mL: 99.9%
[5]; 48 h, 48 hr
  cytotoxicity at 150 µg/mL: 99.9%
[6]; [7]
  killing of cells: over 99%
[6]; L1210, 24 h, 24 hr
  cytotoxicity at 50 µg/mL: 81.2 ± 4.3%
  cytotoxicity at 110 µg/mL: 93.5 ± 3.1%
  cytotoxicity at 150 µg/mL: 89.2 ± 3.2%
[6]; L1210, 48 h, 48 hr
  cytotoxicity at 50 µg/mL: 99%
  cytotoxicity at 150 µg/mL: 99.9%
[6]; L1210, 48 h, 48 hr, read-out: % Cytotoxicity
  cytotoxicity at 110 µg/mL: 99.9%
